Experimental data published in US11427548B2 (Arvinas Operations, Inc., priority 2015, dated 2022).
Where two headings read alike, the source gives them in different places.

Biological target: T1, Androgen Receptor (Homo sapiens, UniProt P10275)
T1 construct: endogenous in cells; host or cells: VCaP cells
T1 sequence (P10275 1-920): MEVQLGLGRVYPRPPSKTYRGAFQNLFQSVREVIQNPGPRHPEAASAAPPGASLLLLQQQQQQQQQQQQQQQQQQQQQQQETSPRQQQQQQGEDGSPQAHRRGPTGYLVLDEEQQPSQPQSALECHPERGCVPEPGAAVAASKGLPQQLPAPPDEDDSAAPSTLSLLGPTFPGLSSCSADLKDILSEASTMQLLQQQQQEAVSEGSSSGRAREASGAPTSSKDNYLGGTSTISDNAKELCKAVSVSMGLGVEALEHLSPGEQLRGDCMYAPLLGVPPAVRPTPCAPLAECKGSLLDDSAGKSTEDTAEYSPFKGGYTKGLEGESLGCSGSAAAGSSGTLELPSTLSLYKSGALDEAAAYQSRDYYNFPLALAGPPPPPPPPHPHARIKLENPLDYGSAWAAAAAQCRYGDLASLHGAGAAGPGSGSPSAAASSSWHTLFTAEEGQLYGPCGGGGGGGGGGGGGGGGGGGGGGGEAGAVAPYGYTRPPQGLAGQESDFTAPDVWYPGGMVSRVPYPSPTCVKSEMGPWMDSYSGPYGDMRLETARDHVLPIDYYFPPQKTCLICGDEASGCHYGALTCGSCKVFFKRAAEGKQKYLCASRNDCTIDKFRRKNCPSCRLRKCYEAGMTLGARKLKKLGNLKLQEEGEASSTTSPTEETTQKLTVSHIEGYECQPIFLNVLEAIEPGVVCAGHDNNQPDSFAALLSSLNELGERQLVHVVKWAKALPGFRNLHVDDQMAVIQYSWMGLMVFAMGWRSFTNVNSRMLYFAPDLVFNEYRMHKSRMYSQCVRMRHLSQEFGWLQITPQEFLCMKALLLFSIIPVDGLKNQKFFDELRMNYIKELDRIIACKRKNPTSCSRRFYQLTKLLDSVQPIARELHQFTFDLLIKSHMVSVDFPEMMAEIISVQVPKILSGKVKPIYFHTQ
Assay: Androgen Receptor ELISA assay (PathScan AR ELISA) in VCaP cells: AR degradation, Dmax and DC50
Type: cell-based
Protocol: 1. Androgen Receptor ELISA Assay.
The protocols used with VCaP cells are described below. The androgen receptor ELISA assay was performed using PathScan AR ELISA (Cell Signaling Catalog #12850) according to the following assay steps:
VCaP cells are seeded at 30,000 cells/well at a volume of 200 μL/well in VCaP assay medium [Phenol red free RPMI (Gibco Cat #11835-030); 5% Charcoal Stripped (Dextran treated) FBS (Omega Scientific, Cat #FB-04); Pen/Strep Life Technologies (Gibco Cat #: 10378-016); 0.1 nM R1881 (Sigma, Cat #R0908) is added upon the start of the assay, not during initial plating of the cells) in Corning 3904 plates. The cells are grown for a minimum of 3 days.
First, cells are dosed with compounds diluted in 0.1% DMSO—use a polypropylene plate according to the following protocol: (1)(i) make 1000× stock plate in DMSO; (ii) 20 mM stock diluted 1/6.7 with DMSO (5 μL+28.3 μL DMSO)=3 mM into row H; (iii) perform serial dilutions in ½ log doses (10 μL of PROTAC+20 μL DMSO) from row H towards row B. Reserve row A for DMSO; (iv) 7 doses total (final concentration in this 1000× plate will be 3 mM, 1 mM, 333 μM, 111 μM, etc). (2)(i) Make 10× stock plate in media; (ii) transfer 2.5 μL of the 1000× stock to a new 10× stock plate (use 12 channel pipet, start at A (DMSO control) work thru H. When 247.5 μL of media is added to this plate, it will serve as a 10× stock; (iii) make media+1 nM R1881 for making 10× stock plate; (iv) add 247.5 μL of media with 1 nM R1881 to each well of the 10× stock plate, mix.
Then 22 μL of 10× stock is added to cells and incubated for 24 h. 1× Cell Signaling Cell lysis buffer is made (Catalogue #9803; comes with the kit)—prepare for 50 μL/well. Keep on ice. Media is aspirated, and 50 μL 1× cell lysis buffer/well is added. The cells are placed on ice for 10 minutes. The solution is mixed and transferred to PCR plate, and centrifuged at 4C for 10 minutes at 4000 rpm.
5 μL is transferred to fresh plate (use immediately or freeze −80 C); 115 μL ELISA Dilutant is added (0.15 ug/ml-0.075 ug/ml; comes with the PathScan ELISA).
Add 100 μL/well AR Elisa; cover and shake, 37 C for 2 hrs; dump, tap, wash 4×200 μL ELISA wash buffer; add 100 μL/well mouse AR detection Ab; cover and shake, 37 C for 1 hr; dump, tap, wash 4×200 μL ELISA wash buffer; add 100 μL/well anti-mouse—HRP conjugated Ab (comes with the kit); cover and shake, 37 C for 30 min; allow TMB reagent to come to room temperature; dump, tap, wash 4×200 μL Elisa wash buffer; tap; add 100 μL TMB, shake 5 min—while watching color. Add the stop reagent when light blue color develops. Add 100 μL Stop solution; shake and read at 450 nm.

[1] = VCaP cells; Table 36; read-out: VCaP DC50
[2] = VCaP, VCaP cells; Table 36; read-out: VCaP Dmax (%)

| Compound | DC50 [1] | Dmax [2] | Dmax (VCaP, read-out: VCaP Dmax (%)) | also measured |
| --- | --- | --- | --- | --- |
| Cc1ncsc1-c1ccc([C@H](C)NC(=O)C2C[C@@H](O)CN2C(=O)C(NC(=O)CCCN2CCN(c3ccc(C(=O)N[C@H]4C(C)(C)[C@H](Oc5ccc(C#N)c(Cl)c5)C4(C)C)cn3)CC2)C(C)(C)C)cc1 (stereo partly drawn) [Example 768, N-((1r,3r)-3-(3-chloro-4-cyanophenoxy)-2,2,4,4-tetramethylcyclobutyl)-6-(4-(4-(((S)-1-((2S,4R)-4-hydroxy-2-(((S)-1-(4-(4-methylthiazol-5-yl)phenyl)ethyl)carbam-oyl)pyrrolidin-1-yl)-3,3-dimethyl-1-oxobutan-2-yl)amino)-4-oxobutyl)piperazin-1-yl)nicotinamide] | > 501 nM | < 25% | – | – |
| Cc1ncoc1-c1ccc(CNC(=O)[C@@H]2C[C@@H](O)CN2C(=O)[C@@H](NC(=O)COCCCCOc2ccc(-c3ccc(N4C(=S)N(c5cnc(C#N)c(C(F)(F)F)c5)C(=O)C45CCC5)cc3)cc2)C(C)(C)C)cc1 [Example 198, (2S,4R)-1-[(2S)-2-(2-{4-[4-(4-{7-[6-cyano-5-(trifluoromethyl)pyridin-3-yl]-8-oxo-6-sulfanylidene-5,7-diazaspiro[3.4]octan-5-yl}phenyl)phenoxy]butoxy}acetamido)-3,3-dimethylbutanoyl]-4-hydroxy-N-{[4-(4-methyl-1,3-oxazol-5-yl)phenyl]methyl}pyrrolidine-2-carboxamide] | – | – | – | DC50 (VCaP cells; concentration that caused 50% Androgen Receptor degradation; read-out: VCaP DC50): < 50 nM; Dmax (VCaP, VCaP cells; highest percentage of Androgen Receptor degradation; read-out: VCaP Dmax (%)): 51 to 70% |
| Cc1cc(OCCCCOCC(=O)N[C@H](C(=O)N2C[C@H](O)C[C@H]2C(=O)NCc2ccc(-c3scnc3C)cc2)C(C)(C)C)ccc1-c1ccc(N2C(=S)N(c3ccc(C#N)c(C(F)(F)F)c3)C(=O)C2(C)C)cc1 [Example 136, (2S,4R)-1-[(2S)-2-(2-{4-[4-(4-{3-[4-cyano-3-(trifluoromethyl)phenyl]-5,5-dimethyl-4-oxo-2-sulfanylideneimidazolidin-1-yl}phenyl)-3-methylphenoxy]butoxy}acetamido)-3,3-dimethylbutanoyl]-4-hydroxy-N-{[4-(4-methyl-1,3-thiazol-5-yl)phenyl]methyl}pyrrolidine-2-carboxamide] | – | – | > 71% | DC50 (read-out: VCaP DC50; concentration that caused 50% Androgen Receptor degradation, VCaP cells (Table 32)): < 50 nM |
| Cc1ncsc1-c1ccc([C@H](C)NC(=O)[C@@H]2C[C@@H](O)CN2C(=O)[C@H](C(C)C)n2cc(-c3ccnc(OC4CN(c5ccc(C(=O)N[C@H]6C(C)(C)[C@H](Oc7ccc(C#N)c(Cl)c7)C6(C)C)cn5)C4)c3)cn2)cc1 [Example 594, N-((1r,3r)-3-(3-chloro-4-cyanophenoxy)-2,2,,4-tetramethylcyclobutyl)-6-(3-((4-(1-((S)-1-((2S,4R)-4-hydroxy-2-(((S)-1-(4-(4-methylthiazol-5-yl)phenyl)ethyl)carbam-oyl)pyrrolidin-1-yl)-3-methyl-1-oxobutan-2-yl)-1H-pyrazol-4-yl)pyridin-2-yl)oxy)azetidin-1-yl)nicotinamide] | > 501 nM | < 25% | – | – |
| CC(C)(C)[C@H](NC(=O)COCC#CC#CCOc1ccc(N2C(=S)N(c3ccc(C#N)c(Cl)c3)C(=O)C2(C)C)cc1F)C(=O)N1C[C@H](O)C[C@H]1C(=O)NCc1ccc(-c2cnco2)cc1 [Example 60, (2S,4R)-1-[(2S)-2-{2-[(6-{4-[3-(3-chloro-4-cyanophenyl)-5,5-dimethyl-4-oxo-2-sulfanylideneimidazolidin-1-yl]-2-fluorophenoxy}hexa-2,4-diyn-1-yl)oxy]acetamido}-3,3-dimethylbutanoyl]-4-hydroxy-N-{[4-(1,3-oxazol-5-yl)phenyl]methyl}pyrrolidine-2-carboxamide] | – | – | 51 to 70% | DC50 (read-out: VCaP DC50; concentration that caused 50% Androgen Receptor degradation, VCaP cells): 51 to 500 nM |
| Cc1ncsc1-c1ccc([C@H](C)NC(=O)C2C[C@@H](O)CN2C(=O)C(NC(=O)CN2C3CCC2CN(CCCCc2ccc(C(=O)N[C@H]4C(C)(C)[C@H](Oc5ccc(C#N)c(Cl)c5)C4(C)C)cc2)C3)C(C)(C)C)cc1 (stereo partly drawn) [Example 835, (2S,4R)-1-((2S)-2-(2-(3-(4-(4-(((1r,3r)-3-(3-chloro-4-cyanophenoxy)-2,2,4,4-tetramethylcyclobutyl)carbamoyl)phenyl)butyl)-3,8-diazabicyclo[3.2.1]octan-8-yl)acetamido)-3,3-dimethylbutanoyl)-4-hydroxy-N-((S)-1-(4-(4-methylthiazol-5-yl)phenyl)ethyl) pyrrolidine-2-carboxamide] | – | – | > 71% | DC50 (read-out: VCaP DC50; VCaP cells; Table 36): < 50 nM |
| Cc1ncsc1-c1ccc([C@H](CO)NC(=O)[C@@H]2C[C@@H](O)CN2C(=O)[C@@H](NC(=O)CCCCN2CCN(c3ccc(C(=O)N[C@H]4C(C)(C)[C@H](Oc5ccc(C#N)c(Cl)c5)C4(C)C)cn3)CC2)C(C)(C)C)cc1 [Example 780, N-((1r,3r)-3-(3-chloro-4-cyanophenoxy)-2,2,4,4-tetramethylcyclobutyl)-6-(4-(5-(((S)-1-((2S,4R)-4-hydroxy-2-(((R)-2-hydroxy-1-(4-(4-methylthiazol-5-yl)phenyl)ethyl)carbamoyl)pyrrolidin-1-yl)-3,3-dimethyl-1-oxobutan-2-yl)amino)-5-oxopentyl)piperazin-1-yl)nicotinamide] | < 50 nM | 26 to 50% | – | – |
| Cc1ncoc1-c1ccc([C@H](C)NC(=O)[C@@H]2C[C@@H](O)CN2C(=O)[C@@H](NC(=O)COCCCCOc2ccc(C(=O)N[C@H]3C(C)(C)[C@H](Oc4ccc(C#N)c(Cl)c4)C3(C)C)cc2)C(C)(C)C)cc1 [Example 168, (2S,4R)-1-[(2S)-3,3-dimethyl-2-{2-[4-(4-{[trans-3-(3-chloro-4-cyanophenoxy)-2,2,4,4-tetramethylcyclobutyl]carbamoyl}phenoxy)butoxy]acetamido}butanoyl]-4-hydroxy-N-[(1S)-1-[4-(4-methyl-1,3-oxazol-5-yl)phenyl]ethyl]pyrrolidine-2-carboxamide] | – | – | – | Dmax (VCaP, highest percentage of Androgen Receptor degradation observed, VCaP cells (Table 32); read-out: VCaP Dmax (%)): > 71%; DC50 (concentration that caused 50% Androgen Receptor degradation, VCaP cells (Table 32); read-out: VCaP DC50): < 50 nM |
| Cc1ncsc1-c1ccc([C@H](C)NC(=O)[C@@H]2C[C@@H](O)CN2C(=O)[C@@H](c2cc(OCCN3CCN(c4ccc(C(=O)N[C@H]5C(C)(C)[C@H](Oc6ccc(C#N)c(Cl)c6)C5(C)C)cn4)CC3)no2)C(C)C)cc1 [Example 659, N-((1r,3r)-3-(3-chloro-4-cyanophenoxy)-2,2,4,4-tetramethylcyclobutyl)-6-(4-(2-((5-((R)-1-((2S,4R)-4-hydroxy-2-(((S)-1-(4-(4-methylthiazol-5-yl)phenyl)ethyl)carbam-oyl)pyrrolidin-1-yl)-3-methyl-1-oxobutan-2-yl)isoxazol-3-yl)oxy)ethyl)piperazin-1-yl)nicotinamide] | < 50 nM | > 71% | – | – |
